Values after ≈ are worked out from the molar mass of the structure shown. Read-outs that look alike come from different tables or passages of the source.
Experiments:
[1] = tested on: Candida albicans ATCC 10231; assay: cup-plate agar diffusion method, inhibition zone diameters; format: cell-based
[2] = tested on: Candida albicans ATCC 10231; assay: broth microdilution MIC/MFC; format: cell-based
[3] = tested on: Candida albicans ATCC 18804; assay: broth microdilution MIC/MFC; format: cell-based
Candida krusei ATCC 6258 = assay: broth microdilution MIC/MFC; format: cell-based; settings: Pichia kudriavzevii, ATCC6258
[4] = tested on: Candida parapsilosis ATCC 22019; assay: broth microdilution MIC/MFC; format: cell-based; settings: Lodderomyces parapsilosis, ATCC22019
[5] = lipophilicity by RP-TLC with PCA; format: physicochemical; set-up: key to P1 / P2: PCA scores of compounds computed from Rf data; settings: for RM0: RP-TLC C18, water-i-propanol 45-65%, intercept, RM extrapolated to 0% organic modifier (lipophilicity); for b: RP-TLC regression slope (specific hydrophobic surface area); for P1: score of first principal component of Rf data, low P1 = highly lipophilic; for P2: score of second principal component of Rf data
Experimental: The lipophilic character of twenty thiazolin-4-one derivatives was assessed with the help of the principal component analysis (PCA) based on the reversed-phase thin-layer chromatography (RP-TLC) data.
The chromatographic behavior of the test compounds was studied on C18 silicagel bonded 60 RP-180F254S TLC (20 × 20 cm) plates, purchased from Merck (Darmstadt, Germany). The test compounds’ solutions (1 mg/mL) were prepared by dissolving the samples in DMSO (Merck, Darmstadt, Germany). The plates were manually spotted with 3 µL aliquots of each solution at 10 mm from the base and 5 mm from the edge of the plate, leaving a 10 mm distance between successive spots, and developed by the ascending technique, without preconditioning. Chromatography was performed in a normal developing chamber at room temperature (~24 °C), the developing distance being of 9 cm. The solvent system used as mobile phase consisted of a water-i-propanol mixture, with a varying content of organic modifier (i-propanol—concentration ranged between 45% and 65% (v/v), with 5% vol. increments). Before the development, the chamber was saturated with the mobile phase for 15 min. After being developed, the dried plates were visually inspected under the UV light (λ = 254 nm), each spot was clearly marked and its distance was manually measured in order to calculate the Rf values. The spots of the compounds 3f, 10 and 11 were not visible in UV light, thus their Rf values could not be calculated, therefore they were excluded from this assay.
Based on the Rf values, one of the most common lipophilic estimator, meaning the isocratic retention factor RM was calculated using the Bate-Smith and Westall equations [40].
RP-TLC provides retention data in the form of Rf and the corresponding RM values (Equation (2)) that can be used to derive chromatographic descriptors for estimating lipophilicity: RM0, b and PCA. The most popular lipophilicity descriptor estimated by this method is RM and it is derived from the retention factor (Rf) according to the following formula: RM = log[(1/Rf) − 1] (2) where Rf is calculated on the basis of migration distance of a compound and the solvent front.
As RM value (related to the molecular lipophilicity) depends linearly on the concentration of the organic modifier in the mobile phase, the value is extrapolated to pure water as mobile phase. In order to increase the accuracy of the lipophilicity determination, the RM values extrapolated to zero organic modifier concentration (RM0) have been calculated from the linear correlation between the RM values and the concentration of the organic component of the mobile phase: RM = RM0 + bc (3) where RM0 is the lipophilicity estimation parameter, RM is the retention of the solute, b is the slope, and c is the concentration of the mobile phase organic modifier (i-propanol).
The intercept (RM0) in Equation (3) represents the extrapolated RM values at 0% organic modifier.
PCA was performed on the obtained retention parameters with the help of XL-STAT extension. […] PCA gave the coordinates (scores) of the studied compounds and also the loadings of the variables (solvents) on the principal components.

[6] = ATCC10231, C. albicans ATCC 10231, 1 mg/mL in DMSO, 20 µg/well, mean of three ± SD, read-out: inhibition zone diameters
[7] = ATCC10231, C. albicans ATCC 10231, read-out: MFC
[8] = ATCC10231, C. albicans ATCC 10231, read-out: MIC
[9] = ATCC18804, C. albicans ATCC 18804, read-out: MFC
[10] = ATCC18804, C. albicans ATCC 18804, read-out: MIC
[11] = C. krusei ATCC 6258, read-out: MFC
[12] = C. krusei ATCC 6258, read-out: MIC
[13] = C. parapsilosis ATCC 22019, read-out: MFC
[14] = C. parapsilosis ATCC 22019, read-out: MIC

Compound | zone of inhibition at 1000 µg/mL [1, 6] [mm] | MFC [2, 7] [µg/mL] | MIC [2, 8] [µg/mL] | MFC [3, 9] [µg/mL] | MIC [3, 10] [µg/mL] | MFC (Candida krusei ATCC 6258; [11]) [µg/mL] | MIC (Candida krusei ATCC 6258; [12]) [µg/mL] | MFC [4, 13] [µg/mL] | MIC [4, 14] [µg/mL] | RM0 [5] | b [5] | P1 [5] | P2 [5] | melting point [°C] | other results
C=CCNC1=NC(=O)C(=Cc2ccc(Cl)cc2Cl)S1 [Compound 3b, 2-(Allylamino)-5-(2,4-dichlorobenzylidene)thiazol-4(5H)-one] | 20 ± 0.5 | 31.2 (≈ 99.8 µM) | 31.2 (≈ 99.8 µM) | 15.6 (≈ 49.9 µM) | 15.6 (≈ 49.9 µM) | 31.2 (≈ 99.8 µM) | 15.6 (≈ 49.9 µM) | 15.6 (≈ 49.9 µM) | 7.81 (≈ 24.9 µM) | 2.2398 | −3.6102 | −1.263 | −0.062 | 238 | –
C=CCNC1=NC(=O)CS1 [Compound 2, 2-(allylamino)thiazol-4(5H)-one] | 20 ± 0.2 | 0.24 (≈ 1.54 µM) | 0.12 (≈ 0.768 µM) | 0.48 (≈ 3.07 µM) | 0.24 (≈ 1.54 µM) | 0.48 (≈ 3.07 µM) | 0.24 (≈ 1.54 µM) | 0.24 (≈ 1.54 µM) | 0.12 (≈ 0.768 µM) | 0.0414 | −1.1059 | 4.335 | 0.879 | 90 to 91 | –
O=C1N=C(Nc2ccccc2)SC1=Cc1ccc(Cl)cc1Cl [Compound 6b, 5-(2,4-Dichlorobenzylidene)-2-(phenylamino)thiazol-4(5H)-one] | 20 ± 1 | 31.2 (≈ 89.5 µM) | 15.6 (≈ 44.7 µM) | 31.2 (≈ 89.5 µM) | 15.6 (≈ 44.7 µM) | 7.81 (≈ 22.4 µM) | 7.81 (≈ 22.4 µM) | 3.9 (≈ 11.2 µM) | 3.9 (≈ 11.2 µM) | 2.4679 | −4.0118 | −1.253 | −0.186 | 204 to 206 | –
O=C1N=C(Nc2cccc3ccccc23)SC1=Cc1csc(-c2ccccc2)n1 [Compound 9d, 2-(Naphthalen-1-ylamino)-5-((2-phenylthiazol-4-yl)methylene)thiazol-4(5H)-one] | 20 ± 1 | 15.6 (≈ 37.8 µM) | 7.81 (≈ 18.9 µM) | 3.9 (≈ 9.43 µM) | 3.9 (≈ 9.43 µM) | 0.48 (≈ 1.16 µM) | 0.24 (≈ 0.58 µM) | 0.24 (≈ 0.58 µM) | 0.12 (≈ 0.29 µM) | 3.287 | −4.6935 | −3.746 | 0.618 | 312 | –
C=CCNC1=NC(=O)C(=Cc2csc(-c3ccccc3)n2)S1 [Compound 3d, 2-(Allylamino)-5-((2-phenylthiazol-4-yl)methylene)thiazol-4(5H)-one] | 20 ± 0.2 | 62.5 (≈ 191 µM) | 31.2 (≈ 95.4 µM) | 62.5 (≈ 191 µM) | 31.2 (≈ 95.4 µM) | 31.2 (≈ 95.4 µM) | 15.6 (≈ 47.7 µM) | 15.6 (≈ 47.7 µM) | 7.81 (≈ 23.9 µM) | 2.2119 | −3.7366 | −0.549 | −0.241 | 339 | –
O=C1N=C(Nc2cccc3ccccc23)SC1=Cc1coc2ccc(Cl)cc2c1=O [Compound 9e, 5-((6-Chloro-4-oxo-4H-chromen-3-yl)methylene)-2-(naphthalen-1-ylamino)thiazol-4(5H)-one] | 22 ± 0.5 | 15.6 (≈ 36.1 µM) | 7.81 (≈ 18 µM) | 3.9 (≈ 9.01 µM) | 1.95 (≈ 4.5 µM) | 3.9 (≈ 9.01 µM) | 1.95 (≈ 4.5 µM) | 3.9 (≈ 9.01 µM) | 1.95 (≈ 4.5 µM) | 2.3983 | −3.319 | −3.292 | 0.708 | 266 to 268 | –
C=CCNC1=NC(=O)C(=Cc2cccc(Br)c2)S1 [Compound 3f, 2-(Allylamino)-5-(3-bromobenzylidene)thiazol-4(5H)-one] | 22 ± 0.2 | 3.9 (≈ 12.1 µM) | 1.95 (≈ 6.03 µM) | 15.6 (≈ 48.3 µM) | 7.81 (≈ 24.2 µM) | 7.81 (≈ 24.2 µM) | 3.9 (≈ 12.1 µM) | 3.9 (≈ 12.1 µM) | 1.95 (≈ 6.03 µM) | – | – | – | – | 330 | –
O=C1CSC(c2ccccc2)=N1 [Compound 11, 2-phenylthiazol-4(5H)-one] | 18 ± 1 | 0.48 (≈ 2.71 µM) | 0.24 (≈ 1.35 µM) | 0.24 (≈ 1.35 µM) | 0.12 (≈ 0.677 µM) | 0.48 (≈ 2.71 µM) | 0.12 (≈ 0.677 µM) | 0.12 (≈ 0.677 µM) | 0.06 (≈ 0.339 µM) | – | – | – | – | – | –
O=C1CSC(Nc2cccc3ccccc23)=N1 [Compound 8, 2-(naphthalen-1-ylamino)thiazol-4(5H)-one] | 24 ± 1 | 0.24 (≈ 0.99 µM) | 0.12 (≈ 0.495 µM) | 0.24 (≈ 0.99 µM) | 0.12 (≈ 0.495 µM) | 0.12 (≈ 0.495 µM) | 0.06 (≈ 0.248 µM) | 0.12 (≈ 0.495 µM) | 0.03 (≈ 0.124 µM) | 1.6225 | −3.0931 | 1.125 | −0.163 | – | –
O=C1CSC(Nc2ccccc2)=N1 [Compound 5, 2-(phenylamino)thiazol-4(5H)-one] | – | – | – | – | – | – | – | – | – | 0.9459 | −2.2931 | 2.796 | 0.238 | – | zone of inhibition at 1000 µg/mL ([1]; ATCC10231, read-out: inhibition zone diameters): 22 ± 0.5 mm; MFC ([2]; ATCC10231): 0.48 µg/mL (≈ 2.5 µM); MIC ([2]; ATCC10231): 0.24 µg/mL (≈ 1.25 µM); MFC ([3]; ATCC18804): 0.24 µg/mL (≈ 1.25 µM); MIC ([3]; ATCC18804): 0.12 µg/mL (≈ 0.624 µM); MFC (Candida krusei ATCC 6258): 0.12 µg/mL (≈ 0.624 µM); MIC (Candida krusei ATCC 6258): 0.06 µg/mL (≈ 0.312 µM); MFC [4]: 0.12 µg/mL (≈ 0.624 µM); MIC [4]: 0.06 µg/mL (≈ 0.312 µM)

From PMC5297809, “Design, Synthesis and Antifungal Activity Evaluation of New Thiazolin-4-ones as Potential Lanosterol 14α-Demethylase Inhibitors” (International Journal of Molecular Sciences, 2017)
